Source: patent publication US20080009418A1, “Selective Inhibitors” (Alchemia LTD., priority 2004, published 2008)

Legend:
Human δ-opioid (DOP) = target: T1, Human δ-opioid (DOP) (Homo sapiens, UniProt P41143); experiment: Radioligand binding, human δ-opioid (DOP) membranes, FlashPlate, [3H]-Bremazocine; details: compound at 10 μM, [3H]-Bremazocine
T1 construct: purchased Perkin Elmer Biosignal
In short: (§1)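 Cloned human receptor membranes were coated onto FlashPlate wells and incubated with radioligand and compound (added from a 0.5 mM DMSO daughter plate) for 1 hour at room temperature in the dark. Scintillation counting gave percent inhibition, with DMSO defining total and reference ligand defining non-specific binding.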

Human κ-Opioid (KOP) = target: T2, Human κ-Opioid (KOP) (Homo sapiens, UniProt P41145); experiment: Radioligand binding, human κ-opioid (KOP) membranes, filtration, [3H]-Diprenorphine; details: compound at 10 μM, [3H]-Diprenorphine
T2 construct: purchased Perkin Elmer Biosignal
In short: (§2)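 Percent inhibition of radioligand binding measured on recombinant human membranes: NK1 with [125I]-Substance P, KOP with [3H]-Diprenorphine. Incubation 1 h at room temperature, then harvest onto 0.3% PEI-soaked filters, cold Tris-HCl pH 7.4 washes and scintillation counting; non-specific binding from reference ligand wells.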

Human Melanocortin (MC3) = target: T3, Human Melanocortin (MC3) (Homo sapiens, UniProt P41968); experiment: Radioligand binding, human melanocortin MC3 membranes, FlashPlate, [125I]-NDP-αMSH; details: compound at 10 μM, [125I]-NDP-αMSH
T3 construct: purchased Perkin Elmer Biosignal
In short: as §1

Human Melanocortin (MC4) = target: T4, Human Melanocortin (MC4) (Homo sapiens, UniProt P32245); experiment: Radioligand binding, human melanocortin MC4 membranes, FlashPlate, [125I]-NDP-αMSH; details: compound at 10 μM, [125I]-NDP-αMSH
T4 construct: purchased Perkin Elmer Biosignal
In short: as §1

Human melanocortin (MC5) = target: T5, Human melanocortin (MC5) (Homo sapiens, UniProt P33032); experiment: Radioligand binding, human melanocortin MC5 membranes, FlashPlate, [125I]-NDP-αMSH; details: compound at 10 μM, [125I]-NDP-αMSH
T5 construct: purchased Perkin Elmer Biosignal
In short: as §1

[1] = target: T6, Human melanin-concentrating hormone (MCH1) (Homo sapiens, UniProt Q99705); experiment: Radioligand binding, human melanin-concentrating hormone MCH1 membranes, FlashPlate, [125I]-S36057; details: compound at 10 μM
T6 construct: purchased Perkin Elmer Biosignal
In short: as §1

Human μ-opioid (MOP) = target: T7, Human μ-opioid (MOP) (Homo sapiens, UniProt P35372); experiment: Radioligand binding, human μ-opioid (MOP) membranes, FlashPlate, [3H]-Naloxone; details: compound at 10 μM, [3H]-Naloxone
T7 construct: purchased Perkin Elmer Biosignal
In short: as §1

Human neurokinin (NK1) = target: T8, Human neurokinin (NK1) (Homo sapiens, UniProt P25103); experiment: Radioligand binding, human neurokinin NK1 membranes, filtration, [125I]-Substance P; details: compound at 10 μM, [125I]-Substance P
T8 construct: purchased Perkin Elmer Biosignal
In short: as §2

[2] = target: T9, Human neuropeptide Y (NPY-Y1) (Homo sapiens, UniProt P25929); experiment: Radioligand binding, human neuropeptide Y NPY-Y1 membranes, FlashPlate, [125I]-PYY; details: compound at 10 μM, [125I]-PYY
T9 construct: purchased Perkin Elmer Biosignal
T9 sequence (P25929 1-384): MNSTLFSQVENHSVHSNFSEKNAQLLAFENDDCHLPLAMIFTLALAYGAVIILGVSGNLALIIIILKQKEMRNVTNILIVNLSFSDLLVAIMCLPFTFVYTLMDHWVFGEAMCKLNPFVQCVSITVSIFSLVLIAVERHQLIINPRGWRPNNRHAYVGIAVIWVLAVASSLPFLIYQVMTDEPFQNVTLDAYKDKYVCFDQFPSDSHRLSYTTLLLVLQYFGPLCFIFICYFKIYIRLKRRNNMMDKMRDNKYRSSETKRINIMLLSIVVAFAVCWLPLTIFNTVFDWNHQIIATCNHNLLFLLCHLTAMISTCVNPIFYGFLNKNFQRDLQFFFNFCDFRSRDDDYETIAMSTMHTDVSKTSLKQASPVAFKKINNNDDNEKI
In short: as §1

Human opioid (ORL1) = target: T10, Human opioid (ORL1) (Homo sapiens, UniProt P41146); experiment: Radioligand binding, human opioid ORL1 membranes, FlashPlate, [125I]-Nociceptin; details: compound at 10 μM, [125I]-Nociceptin
T10 construct: purchased Perkin Elmer Biosignal
In short: as §1

Mouse urotensin (mUR2) = target: T11, Mouse urotensin (mUR2) (Mus musculus, UniProt Q8VIH9); experiment: Radioligand binding, mouse urotensin mUR2 membranes, FlashPlate, [125I]-Urotensin II; details: compound at 10 μM, [125I]-Urotensin II
T11 construct: purchased Perkin Elmer Biosignal
T11 sequence (Q8VIH9 1-385): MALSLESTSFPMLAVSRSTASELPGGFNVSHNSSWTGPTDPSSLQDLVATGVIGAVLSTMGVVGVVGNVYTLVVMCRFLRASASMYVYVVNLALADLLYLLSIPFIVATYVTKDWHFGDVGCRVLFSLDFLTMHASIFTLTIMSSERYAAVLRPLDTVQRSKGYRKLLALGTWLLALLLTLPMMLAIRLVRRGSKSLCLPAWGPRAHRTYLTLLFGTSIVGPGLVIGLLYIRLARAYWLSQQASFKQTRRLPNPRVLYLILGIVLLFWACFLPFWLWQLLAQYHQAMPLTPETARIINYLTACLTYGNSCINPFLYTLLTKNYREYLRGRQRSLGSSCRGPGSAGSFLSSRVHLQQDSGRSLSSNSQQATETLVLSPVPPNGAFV
In short: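 Cloned mouse urotensin (mUR2) receptor membranes from Perkin Elmer Biosignal were immobilized in FlashPlate microplates using a proprietary coating. Each well got 19.5 μl buffer, then 0.5 μl of DMSO, reference ligand, or compound. Adding 5 μl of [125I]-Urotensin II, diluted to 5× final concentration in binding buffer, started binding. Plates were sealed with TopSeal-A and incubated 1 hour at room temperature in the dark. Wells were counted for 30 seconds each on a TopCount after a 60-second delay, and percentage inhibition was calculated.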

T3 sequence (P41968 whole entry): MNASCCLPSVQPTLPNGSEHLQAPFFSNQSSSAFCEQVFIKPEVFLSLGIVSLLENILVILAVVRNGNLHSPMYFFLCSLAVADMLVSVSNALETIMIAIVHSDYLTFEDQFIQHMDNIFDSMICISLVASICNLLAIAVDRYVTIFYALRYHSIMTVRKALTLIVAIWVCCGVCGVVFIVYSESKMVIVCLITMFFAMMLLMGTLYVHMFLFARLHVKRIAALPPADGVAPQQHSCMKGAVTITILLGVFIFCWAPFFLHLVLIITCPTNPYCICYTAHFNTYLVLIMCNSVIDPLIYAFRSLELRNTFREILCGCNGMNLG
T7 sequence (P35372 whole entry): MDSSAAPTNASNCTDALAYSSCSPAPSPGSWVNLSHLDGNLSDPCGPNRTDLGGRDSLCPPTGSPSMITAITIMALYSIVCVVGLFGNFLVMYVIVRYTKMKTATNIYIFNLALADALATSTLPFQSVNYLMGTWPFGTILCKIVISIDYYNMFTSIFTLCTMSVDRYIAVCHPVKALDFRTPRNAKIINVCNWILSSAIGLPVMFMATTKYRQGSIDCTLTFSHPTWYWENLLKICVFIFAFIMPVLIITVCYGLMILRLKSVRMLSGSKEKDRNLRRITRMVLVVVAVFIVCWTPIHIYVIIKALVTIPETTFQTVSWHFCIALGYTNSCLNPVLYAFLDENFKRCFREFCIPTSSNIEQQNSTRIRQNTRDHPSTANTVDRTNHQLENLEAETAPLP
T10 sequence (P41146 whole entry): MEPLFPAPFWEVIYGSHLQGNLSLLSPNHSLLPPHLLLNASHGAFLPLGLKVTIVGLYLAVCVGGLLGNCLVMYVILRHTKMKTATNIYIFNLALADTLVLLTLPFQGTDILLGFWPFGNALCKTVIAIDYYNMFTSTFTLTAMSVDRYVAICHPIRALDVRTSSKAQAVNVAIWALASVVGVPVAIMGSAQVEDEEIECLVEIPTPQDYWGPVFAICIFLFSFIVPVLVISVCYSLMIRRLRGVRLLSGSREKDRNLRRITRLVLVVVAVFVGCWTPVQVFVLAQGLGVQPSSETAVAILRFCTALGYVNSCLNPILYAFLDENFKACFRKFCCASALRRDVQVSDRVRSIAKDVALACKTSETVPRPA
T8 sequence (P25103 whole entry): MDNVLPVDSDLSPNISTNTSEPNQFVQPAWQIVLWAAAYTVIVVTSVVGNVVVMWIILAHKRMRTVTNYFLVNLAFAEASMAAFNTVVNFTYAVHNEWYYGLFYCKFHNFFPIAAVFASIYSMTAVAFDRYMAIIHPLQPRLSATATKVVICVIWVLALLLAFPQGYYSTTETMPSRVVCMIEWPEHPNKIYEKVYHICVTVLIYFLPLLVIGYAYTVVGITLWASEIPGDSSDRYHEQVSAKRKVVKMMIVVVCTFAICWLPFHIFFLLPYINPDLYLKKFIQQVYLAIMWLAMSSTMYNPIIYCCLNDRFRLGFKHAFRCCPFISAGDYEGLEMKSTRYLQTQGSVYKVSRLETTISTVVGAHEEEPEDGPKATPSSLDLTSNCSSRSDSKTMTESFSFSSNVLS
T5 sequence (P33032 whole entry): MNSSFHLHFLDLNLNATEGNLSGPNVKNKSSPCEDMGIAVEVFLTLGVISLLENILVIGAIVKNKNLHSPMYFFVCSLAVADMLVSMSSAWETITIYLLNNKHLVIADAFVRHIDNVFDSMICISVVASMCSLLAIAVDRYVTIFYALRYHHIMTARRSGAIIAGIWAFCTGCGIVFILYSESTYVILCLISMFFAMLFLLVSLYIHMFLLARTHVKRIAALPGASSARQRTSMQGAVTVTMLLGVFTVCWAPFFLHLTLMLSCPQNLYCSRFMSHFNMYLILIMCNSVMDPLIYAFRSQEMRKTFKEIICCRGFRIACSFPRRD
T4 sequence (P32245 whole entry): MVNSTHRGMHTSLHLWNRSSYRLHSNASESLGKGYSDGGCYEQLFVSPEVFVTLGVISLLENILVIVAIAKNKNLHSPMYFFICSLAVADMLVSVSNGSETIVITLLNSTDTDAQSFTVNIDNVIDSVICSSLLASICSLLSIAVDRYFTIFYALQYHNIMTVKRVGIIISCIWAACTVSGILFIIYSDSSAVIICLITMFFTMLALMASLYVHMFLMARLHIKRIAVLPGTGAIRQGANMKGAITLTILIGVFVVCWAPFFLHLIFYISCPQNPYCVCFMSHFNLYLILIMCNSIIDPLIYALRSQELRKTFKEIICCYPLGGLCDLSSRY
T1 sequence (P41143 whole entry): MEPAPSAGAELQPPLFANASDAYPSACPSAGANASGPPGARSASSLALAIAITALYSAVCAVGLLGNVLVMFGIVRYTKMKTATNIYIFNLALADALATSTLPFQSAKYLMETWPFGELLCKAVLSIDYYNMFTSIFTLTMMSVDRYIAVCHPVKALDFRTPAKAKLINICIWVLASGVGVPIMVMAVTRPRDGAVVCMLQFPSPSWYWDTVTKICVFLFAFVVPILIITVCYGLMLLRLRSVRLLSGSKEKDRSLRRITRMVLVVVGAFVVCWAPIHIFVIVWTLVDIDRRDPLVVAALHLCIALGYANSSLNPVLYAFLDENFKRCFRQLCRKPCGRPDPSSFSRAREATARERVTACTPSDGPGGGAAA
T6 sequence (Q99705 whole entry): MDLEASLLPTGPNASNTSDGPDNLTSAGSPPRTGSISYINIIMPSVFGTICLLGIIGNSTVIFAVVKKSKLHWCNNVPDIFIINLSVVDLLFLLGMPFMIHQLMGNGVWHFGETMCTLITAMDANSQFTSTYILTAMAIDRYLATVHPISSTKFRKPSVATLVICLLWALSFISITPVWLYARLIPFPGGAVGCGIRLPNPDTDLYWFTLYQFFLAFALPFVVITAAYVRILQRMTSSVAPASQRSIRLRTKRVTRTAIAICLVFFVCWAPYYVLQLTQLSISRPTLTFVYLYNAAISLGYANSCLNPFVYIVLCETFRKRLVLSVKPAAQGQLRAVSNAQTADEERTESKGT
T2 sequence (P41145 whole entry): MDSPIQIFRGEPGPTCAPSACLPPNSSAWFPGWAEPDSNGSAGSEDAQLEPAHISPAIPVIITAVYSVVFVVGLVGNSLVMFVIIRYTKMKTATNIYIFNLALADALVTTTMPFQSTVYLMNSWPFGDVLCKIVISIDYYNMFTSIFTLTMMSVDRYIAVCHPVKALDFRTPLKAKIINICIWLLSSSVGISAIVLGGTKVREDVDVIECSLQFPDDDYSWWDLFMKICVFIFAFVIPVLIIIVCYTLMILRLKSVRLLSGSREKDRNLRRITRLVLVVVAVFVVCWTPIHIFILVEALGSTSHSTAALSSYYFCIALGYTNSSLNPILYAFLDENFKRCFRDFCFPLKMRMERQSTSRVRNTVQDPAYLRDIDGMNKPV

With `CSC1OC(COCc2ccccc2)C(O)C(OCc2ccc3ccccc3c2)C1NC(=O)CCCNC(=N)N` (stereo not shown) [compound 305] the “A1: inhibition of radioligand binding, human δ-opioid (DOP)” value (Human δ-opioid (DOP)) was “− (“−” indicates less than 50% inhibition at 10 μM)”, the “A2: inhibition of radioligand binding, human κ-opioid (KOP)” value (Human κ-Opioid (KOP)) was “− (“−” indicates less than 50% inhibition at 10 μM)” and the “A3: inhibition of radioligand binding, human melanocortin (MC3)” value (Human Melanocortin (MC3)) was “− (“−” indicates less than 50% inhibition at 10 μM)”. For the same compound, the “A4: inhibition of radioligand binding, human melanocortin (MC4)” value (Human Melanocortin (MC4)) was “− (“−” indicates less than 50% inhibition at 10 μM)”, the “A5: inhibition of radioligand binding, human melanocortin (MC5)” value (Human melanocortin (MC5)) was “+ (“+” indicates greater than 50% inhibition at 10 μM)” and the “A6: inhibition of radioligand binding, human melanin-concentrating hormone (MCH1)” value ([1]; [125I]-S36057) was “− (“−” indicates less than 50% inhibition at 10 μM)”. For the same compound, the “A7: inhibition of radioligand binding, human μ-opioid (MOP)” value (Human μ-opioid (MOP)) was “− (“−” indicates less than 50% inhibition at 10 μM)”, the “A8: inhibition of radioligand binding, human neurokinin (NK1)” value (Human neurokinin (NK1)) was “+ (“+” indicates greater than 50% inhibition at 10 μM)” and the “A9: inhibition of radioligand binding, human neuropeptide Y (NPY-Y1)” value [2] was “− (“−” indicates less than 50% inhibition at 10 μM)”. For the same compound, the “A10: inhibition of radioligand binding, human opioid (ORL1)” value (Human opioid (ORL1)) was “− (“−” indicates less than 50% inhibition at 10 μM)” and the “A11: inhibition of radioligand binding, mouse urotensin (mUR2)” value (Mouse urotensin (mUR2)) was “− (“−” indicates less than 50% inhibition at 10 μM)”.

`COCC1OC(OCc2ccccc2)C(NC(=O)CN)C(OCc2ccc3ccccc3c2)C1O` (stereo not shown) [compound 188] was tested, and the “A1: inhibition of radioligand binding” value (Human δ-opioid (DOP); FlashPlate) was “− (“−” indicates less than 50% inhibition at 10 μM)”, the “A2: inhibition of radioligand binding” value (Human κ-Opioid (KOP); filtration) was “− (“−” indicates less than 50% inhibition at 10 μM)” and the “A3: inhibition of radioligand binding” value (Human Melanocortin (MC3); FlashPlate) was “− (“−” indicates less than 50% inhibition at 10 μM)”. For the same compound, the “A4: inhibition of radioligand binding” value (Human Melanocortin (MC4); FlashPlate) was “− (“−” indicates less than 50% inhibition at 10 μM)”, the “A5: inhibition of radioligand binding” value (Human melanocortin (MC5); FlashPlate) was “− (“−” indicates less than 50% inhibition at 10 μM)” and the “A6: inhibition of radioligand binding” value ([1]; [125I]-S36057, FlashPlate) was “− (“−” indicates less than 50% inhibition at 10 μM)”. The “A7: inhibition of radioligand binding” value (Human μ-opioid (MOP); FlashPlate) was “− (“−” indicates less than 50% inhibition at 10 μM)”, the “A8: inhibition of radioligand binding” value (Human neurokinin (NK1); filtration) was “+ (“+” indicates greater than 50% inhibition at 10 μM)” and the “A9: inhibition of radioligand binding” value ([2]; FlashPlate) was “− (“−” indicates less than 50% inhibition at 10 μM)”. The “A10: inhibition of radioligand binding” value (Human opioid (ORL1); FlashPlate) was “− (“−” indicates less than 50% inhibition at 10 μM)” and the “A11: inhibition of radioligand binding” value (Mouse urotensin (mUR2); FlashPlate) was “− (“−” indicates less than 50% inhibition at 10 μM)”.
